Experiment: gradient 5% acetonitrile 3 min, to 50% in 2 min, to 85% in 15 min, held 3 min, 100 µL/min
Conditions: column: Zorbax Extend-C18 2.1 x 50 mm; eluents: water / acetonitrile, 0.1% formic acid
Method in brief: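 Retention times come from adduct peaks that were picked computationally and then checked by hand. The standards, pure and pooled in mixtures of ~100 molecules, were run on a Zorbax Extend-C18 column (2.1 × 50 mm, 1.8 μm) at 100 μL/min with water and acetonitrile, each with 0.1% formic acid. Detection was by quadrupole time-of-flight mass spectrometry in positive and negative ionization mode, with a dead volume of 40 μL and a dwell volume of 900 μL.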

Row | SMILES | RP-LC retention time [s]
1 | O=C(Nc1cccc(C(F)(F)F)c1)NC1CCN(c2ccccc2)C1=O (stereo not given) | 926
2 | Cn1c(=O)sc2cc(S(=O)(=O)N3CCC(C(=O)Nc4cccc(F)c4)CC3)ccc21 | 885
3 | Cc1cccc(N(C)C(=O)C2CCCN2S(=O)(=O)c2cc3c(cc2C)NC(=O)CO3)c1 (stereo not given) | 776
4 | c1ccc(-c2cc(N3CCN(c4ccccn4)CC3)nn2-c2ccccc2)cc1 | 831
5 | COC(=O)CNC(=O)NCCn1c(-c2ccc(F)cc2)nc2ccccc21 | 696
6 | CCc1ccc(OCC(=O)Nc2ccc(S(N)(=O)=O)cc2)c(Br)c1 | 836
7 | CCN1C(=O)c2cc(C(=O)NCCCc3ccccc3)nn2CC1(C)C(=O)NC1CCCC1 (stereo not given) | 845
8 | O=C(Cn1c(=O)oc2ccccc21)Nc1nc(-c2ccccc2)cs1 | 912
9 | Cc1ccc(-n2nc(N3CCCC(C(=O)NCc4ccc(N(C)C)cc4)C3)ccc2=O)cc1Cl (stereo not given) | 692
10 | CCN(CC)C(=O)CSc1c(C)cnc2c1c(=O)n(C)c(=O)n2C | 752
11 | COc1ccc(-c2nc(CN3C(=O)C(O)(c4ccc(C)cc4)c4ccccc43)c(C)o2)cc1 (stereo not given) | 1090
12 | CCCc1noc(-c2ccc3nnc(CC(=O)Nc4ccccc4F)n3c2)n1 | 872
13 | Cc1ccc(-c2cn3cccnc3n2)cc1NC(=O)CCC1CCCCC1 | 789
14 | CCc1nn2c(CNC(=O)c3cccc(Br)c3)c(C)nc2s1 | 686
15 | COc1ccc(NC(=O)N2c3ccccc3CC2c2nc(C(C)C)no2)c(C)c1 (stereo not given) | 1220
16 | CCOC(=O)Nc1ccc(S(=O)(=O)N2CCC(c3nc4ccccc4[nH]3)CC2)cc1 | 582
17 | O=c1c2cc(-c3ccc(Cl)cc3)nn2ccn1Cc1nc(-c2cccc(F)c2)no1 | 1190
18 | Cc1ccccc1NC(=O)CN(C)S(=O)(=O)c1cc(C(=O)N2CCC(C)CC2)n(C)c1 | 954
19 | Cc1ccc(C)c(-c2cc3c(=O)n(Cc4noc(-c5ccc6c(c5)OCO6)n4)ccn3n2)c1 | 1120
20 | CS(=O)(=O)N1CCC(C(=O)Nc2cccc(F)c2)Oc2ccc(Cl)cc21 (stereo not given) | 982
21 | O=C(C1CCN(c2cnc3nccnc3c2)CC1)N1CCN(c2ccccc2)CC1 | 718
22 | CSc1cccc(NC(=O)N2CCc3c(c(-c4nc(C5CC5)no4)nn3C)C2)c1 | 883

Row | SMILES | RP-LC retention time [s]
23 | COCC(=O)Nc1ccc2c(c1)Sc1ncccc1C(=O)N2C(C)C | 645
24 | COC(=O)c1c(C)[nH]c(C(=O)N2CCC(CC(=O)N3CCN(C4CCCCC4)CC3)CC2)c1C | 594
25 | COc1cc(NC(=O)c2c(OC)cc(=O)n3c2CCCC3)cc(OC)c1OC | 779
26 | COc1ccc(-c2csc3c(=O)n(Cc4cccc(F)c4)cnc23)cc1 | 1050
27 | CCOc1ccccc1NC(=O)C1(C)Oc2cccnc2N(C)C1=O (stereo not given) | 929
28 | Cc1ccc2ncn(C3CCN(C(=O)Nc4ccccc4)CC3)c(=O)c2c1 | 751
29 | CC1(C)CC(=O)c2cn(-c3ccc(Cl)cc3)c(=O)c(C(=O)Nc3cccnc3)c2C1 | 763
30 | CCCn1c2ccccc2c2cnn(CC(=O)NCCN3CC(C)CC(C)C3)c(=O)c21 (stereo not given) | 701
31 | N#Cc1cccc(C(=O)N2CCN3CCS(=O)(=O)N(C4CC4)C(=O)C3C2)c1 (stereo not given) | 714
32 | Cc1ccc(-c2cc(C(=O)N3CCN(c4ccccn4)CC3)nn2C2CCS(=O)(=O)C2)cc1C (stereo not given) | 674
33 | Cc1oc(-c2[nH]ncc2C(=O)N(C)C)cc1S(=O)(=O)N1CCOCC1 | 604
34 | CC(C)N1C[C@H](Oc2ccccc2)[C@@H]1C1CCN(S(=O)(=O)c2cccnc2)CC1 | 669
35 | Cc1ccc(S(=O)(=O)NCCc2nnc3ccc(NCCCOC(C)C)nn23)cc1 | 657
36 | COc1ccc(CCC(=O)N2CCCC2c2c(C)noc2C)cc1 (stereo not given) | 868
37 | O=c1c2ccccc2ncn1Cc1noc(Cc2ccc(Br)cc2)n1 | 871
38 | COc1ccc(NC(=O)Nc2c(-c3ccc(F)cc3)nc3ccccn23)cc1 | 649
39 | CCc1cc(C(=O)Nc2ccccc2)nc2ccnn12 | 960
40 | O=C(OCCCNc1nc(-c2ccc(Cl)cc2)nc2ccccc12)c1cccs1 | 804
41 | c1csc(-c2csc(CN3CCNCC3)n2)c1 | 548
42 | Cc1ccc(S(=O)(=O)c2cnc(N3CCN(c4ccccc4)CC3)nc2N)cc1C | 1110
43 | CC1C(=O)NCCN1C(=O)Cc1ccc2c(c1)OCO2 (stereo not given) | 600
44 | COc1cn(CC(=O)NCc2ccc3c(c2)OCO3)c(CSc2ccccc2)cc1=O | 618

Row | SMILES | RP-LC retention time [s]
45 | Cc1ccc(NC(=O)N2CCC(C)(C(=O)NCc3ccc(F)cc3)CC2)cc1Cl | 664
46 | CCn1c(CCNC(=O)c2ccc(F)c(F)c2)nc2cccnc21 | 641
47 | Cc1cc(S(=O)(=O)N2CCc3c(c(-c4nnc(-c5ccccc5)o4)nn3C)C2)ccc1F | 703
48 | CC(C)c1ccc(NC(=O)Cn2cnc3c2c(=O)n(C)c(=O)n3C)cc1 | 816
49 | CCN(CC)C(=O)[C@@H]1[C@H](c2cc(OC)c(OC)c(OC)c2)c2cc3c(cc2[C@H](O)[C@H]1CO)OCO3 | 679
50 | COc1cccc(-n2c(=O)c3sccc3n(Cc3nc(-c4ccccc4Cl)no3)c2=O)c1 | 969
51 | Cc1nc(C)c2c(n1)N(CC1CCCCC1)C(=O)CC2 | 730
52 | CCCN1C(=O)c2cc(S(=O)(=O)N3CCOCC3)ccc2Oc2cccnc21 | 926
53 | Cc1ccc(Cl)cc1NC(=O)C1CCCN(c2nc3ccccc3nc2C(F)(F)F)C1 (stereo not given) | 1350
54 | O=C(C1CCCN(c2ncc(-c3cccc(F)c3)cn2)C1)N1CCC(N2CCCCC2)CC1 (stereo not given) | 689
55 | Cc1nnc(NC(=O)CCc2csc(NC(=O)c3ccco3)n2)s1 | 630
56 | Cc1ccc(C(=O)N2CC(Cn3c(C)cnc3C3CCOCC3)C2)s1 | 600
57 | COc1ccc(OC)c(S(=O)(=O)N2CC(N3CC(C(=O)N4CCCC4)CC3=O)C2)c1 (stereo not given) | 666
58 | Cc1c(Cl)cccc1NC(=O)C(=O)NCc1ccsc1 | 943
59 | CCn1nc(C)c(-c2cc(C(=O)O)[nH]n2)c1C | 589
60 | COc1ccc(CC(=O)N2CCCC2COc2ccc(C(=O)N3CCCC3)cc2)cc1 (stereo not given) | 824
61 | Cc1cc(C)cc(NC(=O)Cn2nc3n(c2=O)CCCC3)c1 | 674
62 | COc1ccc(Br)cc1-c1nnc2n(C)c3c(=O)n(C)c(=O)n(C)c3n12 | 641
63 | CCn1c(=O)c2ccccc2n(Cc2nc(-c3ccc(F)c(Br)c3)no2)c1=O | 1120
64 | COc1ccc(OC)c(NC(=O)C2CCN(S(=O)(=O)c3cc(-c4noc(C)n4)cs3)CC2)c1 | 931
65 | CNC(=O)c1sc(-c2ccccc2F)nc1C | 772

Reference: the METLIN SMRT retention time set (Domingo-Almenara et al. 2019)
